Results on seven compounds are retold here after patent US6482948B1, “Thienopyrimidine compounds and salts thereof and process for the preparation of the same” (Nippon Soda Co., Ltd., priority 1999, dated 2002).

The target of data set [1] is T1, PDE 3 (cGMP inhibitable cAMP PDE) (Homo sapiens, UniProt Q14432).
T1 construct: from tissue; host or cells: human platelets
As to the kind of experiment: Phosphodiesterase inhibiting activity, PDE 3. It counts as biochemical. The conditions noted are these: isozyme from human platelets; 1 μM [3H]-cAMP or [3H]-cGMP; read-out: Inhibition of PDE Activity: IC50 PDE 3. The method, then:
(§1) Pharmacological Test Example 1: Phosphodiesterase Inhibiting Activity
(§2) Cyclic nucleotide phosphodiesterases from human platelets and from the heart and kidney of a dog were eluted by the concentration gradient method with 70 to 1000 mM of sodium acetate on DEAE-cellulose column chromatography (Whatman Co. Ltd., DE-52, φ3.2×13 cm) according to the method of Thompson and others (Thompson W. J., et al., Advances in Cyclic Nucleotide Research: 10, 69-92, 1979), and separated into isozymes. PDE 5 (cGMP specific PDE) and PDE 3 (cGMP inhibitable cAMP PDE) were separated from the platelets, PDE 1 (Ca-calmodulin activatable PDE) from the heart, and PDE 4 (cGMP non-inhibitable cAMP PDE) from the kidney. The method of Thompson, et al was partially modified to measure phosphodiesterase activities: 1 μM of [3H]-cAMP or [3H]-cGMP was decomposed with phosphodiesterase. The produced 5′-AMP or 5′-GMP was decomposed to adenosine or guanosine with a snake venom (Sigma V7000). The reaction solution was added to anion exchange resin (Bio-Rad Co. Ltd., AG1-X8). Non-adsorbed adenosine or guanosine was counted by a liquid scintillation counter. A concentration causing 50% inhibition of the enzyme activity (IC50) was calculated from concentration inhibition curves.

Data set [2] has as its target PDE 1 (Ca-calmodulin activatable PDE). Nature of the data set: Phosphodiesterase inhibiting activity, PDE 1. It counts as biochemical. The conditions noted are these: isozyme from dog heart; 1 μM [3H]-cAMP or [3H]-cGMP; read-out: Inhibition of PDE Activity: IC50 PDE 1. The method, then:
as §1, §2

Data set [3] addresses T2, PDE 5 (cGMP specific PDE) (Homo sapiens, UniProt O76074).
T2 construct: from tissue; host or cells: human platelets
As to the kind of experiment: Phosphodiesterase inhibiting activity, PDE 5. It counts as biochemical. The conditions noted are these: isozyme from human platelets; 1 μM [3H]-cAMP or [3H]-cGMP; read-out: Inhibition of PDE Activity: IC50 PDE 5. The method, then:
as §1, §2

The target in the next data set is T3, PDE 2 (Homo sapiens, UniProt O00408).
T3 construct: eluted by the concentration gradient method with 70 to 1000 mM of sodium acetate on DEAE-cellulose column chromatography; from tissue
As to the kind of experiment: Phosphodiesterase inhibiting activity, PDE 2. It counts as biochemical. The conditions noted are these: 1 μM [3H]-cAMP or [3H]-cGMP; source of isozyme not given; read-out: Inhibition of PDE Activity: IC50 PDE 2. The method, then:
[Worded in the source for another target; this target is reported under the same test.] as §1, §2

The target of data set [4] is PDE 4 (cGMP non-inhibitable cAMP PDE). As to the kind of experiment: Phosphodiesterase inhibiting activity, PDE 4. The conditions noted are these: isozyme from dog kidney; 1 μM [3H]-cAMP or [3H]-cGMP; read-out: Inhibition of PDE Activity: IC50 PDE 4. It counts as biochemical. The method, then:
as §1, §2

The subject of another data set is thoracic aortas. Nature of the data set: Vasodilating activity, phenylephrine-contracted thoracic aorta ring preparations (Magnus method). The conditions noted are these: rat thoracic aorta ring preparations contracted with 1 μM phenylephrine, 37° C., drug added cumulatively. Details: species or system Sprague-Dawley male rats. On the procedure:
Pharmacological Test Example 2: Vasodilating Activity
A vasodilating activity was assessed according to the method of Ken-ichi Hirata and Mitsuhiro Yokoyama (Arteriosclerosis and Hyperlipemia Research Strategies, published by Shujunsha (Japan), pages 275-277, 1996): The thoracic aortas were extracted from Sprague-Dawley male rats (weighing 180 to 360 g). After unnecessary connective tissues were removed, the aortas were cut to 5mm-long pieces to make ring strip preparations, and assessed by the Magnus method (37° C.). A nutrient solution used was a Krebs-Henseleit solution aerated with 5% carbon dioxide gas and 95% oxygen gas. Specimens were equilibrated for about 60 minutes, and then contracted by adding 1 μM of phenylephrine. 1 μM of acetylcholine was added at the second phenylepherine-induced contraction in order to confirm an endothelial cell dependent relaxation response. At the third phenylepherine-induced contraction, a drug to test was added cumulatively, and the relaxation action was observed. Drugs to test were all dissolved in DMSO to use for the tests. The tested drugs were assessed by 50% relaxation rates (EC50) obtained from vasodilation rates to respective concentrations (the maximum relaxation was measured by adding 100 μM of papaverine).

T1 sequence (Q14432 whole entry): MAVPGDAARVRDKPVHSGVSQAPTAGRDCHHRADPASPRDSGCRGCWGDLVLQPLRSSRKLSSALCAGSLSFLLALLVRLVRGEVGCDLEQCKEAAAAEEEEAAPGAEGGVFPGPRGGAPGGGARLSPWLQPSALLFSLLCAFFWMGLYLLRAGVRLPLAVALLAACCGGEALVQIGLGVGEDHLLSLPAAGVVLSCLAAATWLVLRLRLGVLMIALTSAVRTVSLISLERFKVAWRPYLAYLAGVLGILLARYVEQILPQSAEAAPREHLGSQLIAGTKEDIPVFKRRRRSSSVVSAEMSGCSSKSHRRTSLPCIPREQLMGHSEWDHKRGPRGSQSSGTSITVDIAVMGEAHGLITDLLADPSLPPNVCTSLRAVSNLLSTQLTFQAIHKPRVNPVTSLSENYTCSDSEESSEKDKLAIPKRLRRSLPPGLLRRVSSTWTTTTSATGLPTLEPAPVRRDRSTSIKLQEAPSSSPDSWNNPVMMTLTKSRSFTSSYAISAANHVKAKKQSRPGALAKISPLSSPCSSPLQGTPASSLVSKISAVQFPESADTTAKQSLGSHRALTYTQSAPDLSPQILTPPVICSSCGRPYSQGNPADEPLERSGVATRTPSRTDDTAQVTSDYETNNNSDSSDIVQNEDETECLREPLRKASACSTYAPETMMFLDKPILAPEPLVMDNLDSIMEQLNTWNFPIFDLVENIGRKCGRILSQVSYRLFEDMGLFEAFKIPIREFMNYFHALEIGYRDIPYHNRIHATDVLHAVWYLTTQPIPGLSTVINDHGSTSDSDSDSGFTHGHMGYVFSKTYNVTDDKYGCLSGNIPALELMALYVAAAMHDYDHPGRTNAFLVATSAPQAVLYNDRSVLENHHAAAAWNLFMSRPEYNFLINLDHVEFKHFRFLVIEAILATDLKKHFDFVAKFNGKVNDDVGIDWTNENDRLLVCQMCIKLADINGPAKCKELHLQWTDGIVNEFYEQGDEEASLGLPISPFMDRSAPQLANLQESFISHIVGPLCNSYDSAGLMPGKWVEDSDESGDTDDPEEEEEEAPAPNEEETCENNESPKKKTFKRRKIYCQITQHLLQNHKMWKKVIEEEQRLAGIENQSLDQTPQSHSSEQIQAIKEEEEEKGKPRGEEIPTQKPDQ
T3 sequence (O00408 whole entry): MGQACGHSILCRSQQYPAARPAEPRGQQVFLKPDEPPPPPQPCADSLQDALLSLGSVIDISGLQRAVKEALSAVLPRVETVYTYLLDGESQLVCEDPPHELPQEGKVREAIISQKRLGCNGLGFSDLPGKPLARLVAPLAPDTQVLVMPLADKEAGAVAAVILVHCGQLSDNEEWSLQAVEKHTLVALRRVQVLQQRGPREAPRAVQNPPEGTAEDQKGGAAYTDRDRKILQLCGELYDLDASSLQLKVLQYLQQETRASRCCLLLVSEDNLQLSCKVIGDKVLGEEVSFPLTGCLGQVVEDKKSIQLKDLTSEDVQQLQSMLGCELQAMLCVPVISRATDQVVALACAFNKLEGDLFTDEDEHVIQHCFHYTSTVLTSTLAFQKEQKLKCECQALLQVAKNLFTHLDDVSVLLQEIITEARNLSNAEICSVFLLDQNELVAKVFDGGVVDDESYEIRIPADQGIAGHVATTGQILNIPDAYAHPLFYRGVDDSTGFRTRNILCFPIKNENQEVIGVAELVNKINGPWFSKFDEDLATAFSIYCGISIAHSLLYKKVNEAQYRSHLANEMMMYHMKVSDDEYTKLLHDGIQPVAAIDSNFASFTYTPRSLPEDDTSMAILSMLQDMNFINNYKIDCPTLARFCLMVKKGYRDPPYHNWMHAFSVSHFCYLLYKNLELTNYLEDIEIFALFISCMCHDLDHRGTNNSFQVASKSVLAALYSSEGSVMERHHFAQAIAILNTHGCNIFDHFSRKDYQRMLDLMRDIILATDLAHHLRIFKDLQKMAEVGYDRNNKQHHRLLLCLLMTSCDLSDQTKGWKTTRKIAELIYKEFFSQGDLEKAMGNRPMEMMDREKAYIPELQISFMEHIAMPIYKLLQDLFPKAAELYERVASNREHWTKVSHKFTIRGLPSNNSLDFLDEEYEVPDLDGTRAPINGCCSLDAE

A word on the melting point: it is the temperature, or range, at which the solid turns liquid. By IC50 is commonly meant the concentration that inhibits the measured activity by half. Usually EC50 stands for the concentration needed to bring the measured effect to its halfway point. The low end stands for greater potency, the high end for weaker potency. As to `CCOC(=O)N1CCc2c(sc3nc(-c4ccncc4)nc(NCc4ccc(OC)c(Cl)c4)c23)C1` [1-5], the melting point fell in the range of 218 to 220 °C. Moreover, in data set [1], the IC50 is over 10000 nM. For the same compound, in data set [2], the IC50 is over 10000 nM. For the same compound, the IC50 in data set [3] worked out at 0.54 nM. Besides, on PDE 2, the IC50 is over 10000 nM. Also, in data set [4], the IC50 was determined as 2500 nM. The same compound registered an EC50 with thoracic aortas of 8.1 nM.

Turning to `COc1ccc(CNc2nc(-c3ccco3)nc3sc4c(c23)CCN(C)C4)cc1Cl` [1-6], the melting point was in the range of 90 to 92 °C. In data set [1], the IC50 was over 10000 nM. The IC50 in data set [2] amounted to 5500 nM. Also, the IC50 in data set [3] worked out at 50 nM. Also, at PDE 2, the IC50 is over 10000 nM. Besides, the IC50 in data set [4] was 3600 nM. Moreover, in the data set with thoracic aortas, the EC50 is 16 nM.

Compound `COc1ccc(CNc2nc(-c3ccncc3)nc3sc4c(c23)CCN(C)C4)cc1Cl` [1-7] displayed a melting point of 118 to 120 °C. The IC50 in data set [1] was found to be 5400 nM. Also, the IC50 in data set [2] was over 10000 nM. The IC50 in data set [3] amounted to 2.4 nM. The IC50 at PDE 2 came to 2000 nM. In data set [4], the concentration for half-maximal inhibition (IC50) stood at 3700 nM. Further, in the data set with thoracic aortas, the EC50 came to 9.5 nM.

Turning to `COC(=O)CNC(=O)c1nc(NCc2ccc(OC)c(Cl)c2)c2c3c(sc2n1)CN(C(C)C)CC3` [1-54], the melting point fell in the range of 155 to 157 °C. In addition, in data set [1], the IC50 was at least 10000 nM. Also, the IC50 in data set [2] was over 10000 nM. Further, in data set [3], the IC50 was found to be 33 nM. On PDE 2, the IC50 was over 10000 nM. The half-inhibitory concentration (IC50) in data set [4] is over 10000 nM. The compound further gave an EC50 in the data set with thoracic aortas of 19 nM.

For the compound `COC(=O)c1nc(NCc2ccc(OC)c(Cl)c2)c2c3c(sc2n1)CN(Cc1ccccc1)CC3` [1-65], the melting point was 168 to 170 °C. The IC50 in data set [1] was over 10000 nM. For the same compound, the IC50 in data set [2] is over 10000 nM. Also, the IC50 in data set [3] amounted to 91 nM. Moreover, at PDE 2, the 50% inhibitory concentration (IC50) is over 10000 nM. Besides, the IC50 in data set [4] was over 10000 nM. A half-maximal effect in the data set with thoracic aortas (EC50) was put at 260 nM.

As to `COc1ccc(CNc2nc(C(=O)NC3CC3)nc3sc4c(c23)CCN(C(C)C)C4)cc1Cl` [1-76], the melting point lay in the range of 112 to 114 °C. Moreover, the IC50 in data set [1] is over 10000 nM. Besides, the IC50 in data set [2] was over 10000 nM. For the same compound, the IC50 in data set [3] turned out to be 56 nM. The IC50 at PDE 2 was over 10000 nM. The half-maximal inhibitory concentration (IC50) in data set [4] was over 10000 nM. In addition, a half-maximal response with thoracic aortas (EC50) required 26 nM.

For `COc1ccc(CNc2nc(C(=O)Nc3cccnc3)nc3sc4c(c23)CCN(C)C4)cc1Cl` [1-81], the melting point is 145 to 147 °C. For the same compound, in data set [1], the IC50 was over 10000 nM. Besides, in data set [2], the IC50 is over 10000 nM. Also, the IC50 in data set [3] was found to be 6 nM. Further, at PDE 2, the IC50 was over 10000 nM. In data set [4], the IC50 came out at 6400 nM. In addition, a half-maximal effect in the data set on thoracic aortas (EC50) was put at 3.1 nM.
